Experimental findings from patent US8580747B2, “Cyclic natriuretic peptide constructs” (Palatin Technologies, Inc., priority 2006, dated 2013) are described below.

For data set [1] the following is noted: rat, in vivo, sc, 5 mg/kg.
For data set [2], the target named is T1, NEP (neutral endopeptidase) (Homo sapiens, UniProt P08473).
T1 construct: purchased R&D Systems, Minneapolis, Minn; 1182-ZN
The experiment in a line: hNEP resistance assay (digestion by neutral endopeptidase). The format is in vitro ADME. The note with it: human recombinant NEP (neutral endopeptidase), pH 7.4, incubation with human recombinant NEP at 37° C. The protocol:
NEP resistance of various constructs of the invention was evaluated using the following experimental procedure. All constructs were diluted in 0.1 M Tris-HCL buffer (pH 7.4) to 100 μM. 40 μL of diluted constructs were added to each tube and all tubes were kept on ice. 40 μL of diluted NEP, either human recombinant NEP (R&D Systems, Minneapolis, Minn., catalogue #1182-ZN) at 8 ng/μL or mouse NEP (R&D Systems, catalog #1126-ZN) at 2.5 ng/μL, was added to each tube. The tubes were mixed gently and spun. […] At the end of the incubation time, the reaction was stopped by adding 5 μL of 10% TFA. […] The extent to which NEP was active against the constructs was then analyzed by HPLC and/or LC/MS. Data analysis included determining the percent of remaining starting material, i.e., undigested peptide construct, and the percent and sequence of each proteolytic fragment.

The conditions of data set [3]: rat, in vivo, iv.

Like-named read-outs stand apart in the source and are kept apart here. Bridge positions count the residues as written; N and C are the ends. Square brackets hold non-standard residues; d marks the D form. Peptide text beside a SMILES is read from it. * marks the point of attachment. Piperazin2one(3S-Bu,6R-CO) = CCCC[C@@H]1NC[C@H](C(=O)*)NC1=O; X1 = N=C(N)NCCC[C@H]1C(=O)N[C@@H](C(N)=O)CN1*; Nle = CCCC[C@H](N)C(=O)O; Orn = NCCC[C@H](N)C(=O)O

T1 sequence (P08473 52-750 limits assumed): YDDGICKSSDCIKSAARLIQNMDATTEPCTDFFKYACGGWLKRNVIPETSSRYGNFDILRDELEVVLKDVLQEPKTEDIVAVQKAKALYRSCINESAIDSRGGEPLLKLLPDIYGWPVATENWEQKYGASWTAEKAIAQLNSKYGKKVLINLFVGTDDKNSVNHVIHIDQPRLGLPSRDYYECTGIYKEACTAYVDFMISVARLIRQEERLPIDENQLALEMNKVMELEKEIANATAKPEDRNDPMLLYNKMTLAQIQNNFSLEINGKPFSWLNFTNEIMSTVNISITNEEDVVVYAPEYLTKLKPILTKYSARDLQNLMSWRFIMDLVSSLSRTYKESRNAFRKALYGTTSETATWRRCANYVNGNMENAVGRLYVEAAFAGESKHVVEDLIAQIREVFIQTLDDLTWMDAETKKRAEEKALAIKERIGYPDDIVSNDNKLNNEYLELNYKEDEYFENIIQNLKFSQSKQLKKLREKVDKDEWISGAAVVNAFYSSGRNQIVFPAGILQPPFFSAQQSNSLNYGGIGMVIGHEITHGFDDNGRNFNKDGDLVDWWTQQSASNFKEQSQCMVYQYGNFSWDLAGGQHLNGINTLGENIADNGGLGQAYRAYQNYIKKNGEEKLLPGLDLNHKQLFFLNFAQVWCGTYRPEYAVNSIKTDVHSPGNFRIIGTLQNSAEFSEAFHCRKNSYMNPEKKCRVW

By AUC is commonly meant concentration integrated over time. A high value points to more exposure. One may read the Cmax as the highest concentration seen after dosing. A word on the Tmax: it is the time at which the peak concentration occurs. What is called half-life is the time needed for the level to fall by half in the phase considered. Low values mean fast loss, high ones slow loss. What is called clearance is a measure of how efficiently the substance is removed, as volume per time. Lower therefore signals inefficient removal. The Vd is a proportionality between amount in the body and measured concentration, not a real space. Low values mean confinement near the circulation, high ones extensive tissue distribution. For the compound `CCCC[C@@H]1NC[C@H](C(=O)N[C@H]2CSSC[C@@H](C(=O)N[C@@H](Cc3ccc(O)cc3)C(=O)N3C[C@H](C(N)=O)NC(=O)[C@@H]3CCCNC(=N)N)NC(=O)[C@H](CO)NC(=O)[C@H]([C@@H](C)CC)NC(=O)[C@H](CCCN)NC(=O)[C@H](CC(=O)O)NC(=O)[C@H](CCCC)NC(=O)[C@H](CCCNC(=N)N)NC(=O)CNC(=O)CNC(=O)[C@H](Cc3ccccc3)NC(=O)[C@H](Cc3c[nH]cn3)NC2=O)NC1=O` [1-55] ({Piperazin2one(3S-Bu,6R-CO)}-CHFGGR[Nle]D[Orn]ISCY-X1; disulfide 1-12), in data set [1], the AUC amounted to 232 nM·h, the maximum concentration (Cmax) is 0.25 µM, the Tmax amounted to 18 min and the half-life was 30 min. Further, the remaining at 1 h, 50 µM in data set [2] (1 h, read-out: hNEP % of Starting Material 1 h) was found to be 83%. Moreover, the remaining at 2 h, 50 µM in data set [2] (2 h, read-out: hNEP % of Starting Material 2 h) is 70%. Further, the clearance in data set [3] was found to be 1.26 L/h/kg. Also, in data set [3] (0.3 mg/kg), the AUC amounted to 116 nM·h, the volume of distribution (Vd) was found to be 0.2 L/kg, the clearance is 0.9 L/h/kg and the half-life was 12 min. Also, in data set [3] (2 mg/kg), the exposure (AUC) worked out at 828 nM·h, the Vd amounted to 0.3 L/kg, the clearance was found to be 1.26 L/h/kg and the half-life was 18 min.
